Two compounds from US5041557A, “Furan derivatives” (Laboratorios Vinas S.A., priority 1989, dated 1991) can be followed below.

Assay [1] deals with ethanol induced ulcers (gastric mucous membrane). As to the kind of experiment: Necrosing agent model: ethanol induced ulcers in the rat. The format is in vivo. The note with it: for mm lesion (lesion index, mm of ulcer) / % inhibition (ulcer inhibition percentage versus control): ethanol, LV-208 100 mg/kg, Rn equimolar dose; for mm lesion (lesion index, mm of ulcer): mean ± error of the mean, control 82.0 ± 10.1, LV-208: p < 0.001 versus control, p < 0.05 versus Rn (t test); for % inhibition (ulcer inhibition percentage versus control): versus control group; for protection against the ethanol induced aggression: rat, equimolar doses of LV-208 and Rn, result in words. On the procedure:
(§1) As stated above, the formula I compounds have shown a potent antiulcer activity. Thus the inhibition of histamine induced gastric secretion "in vivo" in rats, after intraperitoneal administration of these zinc-furan compounds at dose levels of 0.5; 1; 2 and 4 mg/kg reaches pH recovery levels, increasing with the dose, of 100%.
Particularly, the antiulcer activity of the compound LV-208 has been studied with evaluation of the secretion inhibiting and gastric mucous membrane protecting activity in the rat.
The activity of LV-208 was compared with the activity of Rn at equimolar doses using the necrosing agent model, ethanol in this case, described by Robert et al. (Gastroenterology, 77: 433, 1979), versus a control group administered excipient.
The following Table gives the lesion indexes (in mm of ulcer) of the three groups studied, as well as the ulcer inhibition percentages of the treated groups versus the control group (mean values±the error of the mean).

Assay [2] deals with histamine induced gastric acid secretion. The experiment in a line: "In vivo" histamine induced gastric acid secretion model in the rat. Conditions: Wistar rats, intraperitoneal. The method, then:
as §1
This activity was measured in Wistar rats having a body weight of 240±20 g. An endovenous perfusion of a histamine solution stimulated the gastric secretion producing a drop in the intragastric pH. LV-208 was thereafter administered intraperitoneally and the increase in the gastric pH that this produced was evaluated. An ED50 of 0.8 mg/kg and recovery of 100% at a dose of 4 mg/kg was obtained by a dose-response curve.

With `CNC(=C[N+](=O)[O-])NCCSCc1ccc(CN(C)C)o1.[Cl][Zn][Cl]` [LV-208], in assay [1], the “mm lesion (lesion index, mm of ulcer)” value is 4.8 ± 1.8 mm; the “% inhibition (ulcer inhibition percentage versus control)” value was found to be 94.1%; the “protection against the ethanol induced aggression” value was “practically complete protection”. In addition, in assay [2] (dose of 4 mg/kg), the “recovery (gastric pH)” value is reported as 100%. The “ED50 (increase in gastric pH, inhibition of histamine induced gastric acid secretion)” value in assay [2] (endovenous histamine perfusion, dose-response curve) was 0.8 mg/kg.
`CNC(=C[N+](=O)[O-])NCCSCc1ccc(CN(C)C)o1` [Rn, N,N-dimethyl-5-(2-(1-methylamino-2-nitrovinylamino)ethylthiomethyl)furfurylamine, reference compound]: in assay [1], the “mm lesion (lesion index, mm of ulcer)” value stood at 40.6 ± 15.0 mm; the “% inhibition (ulcer inhibition percentage versus control)” value amounted to 50.5%; the “protection against the ethanol induced aggression” value is listed as “discreet protection”.
